These results are taken from PubChem BioAssay AID504780 (National Center for Advancing Translational Sciences (NCATS), 2011).

The data set deals with kinetic aqueous solubility, PBS pH 7.4, LC-UV/MS. Briefly: Identifying a Potential Treatment of Ataxia-Telangiectasia: Solubility Profiling. The following applies: hits give high values. From the text:
Ataxia-telangiectasia (A-T) is a devastating and progressive disease for which, there is no cure. Although A-T is a multisystem disease, it is stereotyped characterized by its neurological symptoms such as truncal ataxia, due to cerebellar cortical degeneration of the Purkinje and granule cells. The underlying genetic cause of A-T is null mutations in the ATM (A-T mutated) gene. ATM is a nuclear serine/threonine kinase that functions as a master regulator of the cellular responses to double strand breaks (DSBs) in the DNA. Upon activation by DSBs, ATM phosphorylates a plethora of downstream targets, including KAP-1 on […]. KAP-1 phosphorylation occurs shortly in response to DSBs and mediates global chromatin relaxation, which facilitates DSB repair. The assay provider and the NCGC have developed assays to discover small molecules that compensate for the loss of ATM and have discovered a probe. The resulting probe is further characterized in several ADME assays. This bioassay provides profiling data on aqueous kinetic solubility (PBS @ pH 7.4) of one of the lead compounds developed in the ATM project. NIH Chemical Genomics Center [NCGC] NIH Molecular Libraries Probe Centers Network [MLPCN] MLPCN Grant: MH089030-01 Assay Submitter (PI): Wei Zheng and Yosef Shiloh
1. […] Concentration of the supernatant was determined by LC-UV or LC-MS/MS

Values after ≈ are worked out from the molar mass of the structure shown.

What is called solubility is how much of the substance goes into solution per volume. `CC(=O)c1c(O)c(C)c(O)c(Cc2c(O)c3c(c(C(=O)/C=C/c4ccccc4)c2O)OC(C)(C)C=C3)c1O`: the solubility was 250 µM (≈ 129 µg/mL).
